This is an account of results in patent US12565475B2, “Small molecule compound inhibiting signal transmission path of TLR7 and TLR9 and use thereof” (AJOU UNIVERSITY INDUSTRY-ACADEMIC COOPERATION FOUNDATION, priority 2019, dated 2026).

pIC50: −log10 of the molar value. Entries after “also recorded” stand apart in the source; their conditions may differ.

One assay addresses T1, TLR9 (Mus musculus, UniProt Q9EQU3).
T1 construct: endogenous in cells; host or cells: RAW 264.7
T1 sequence (Q9EQU3 26-1032): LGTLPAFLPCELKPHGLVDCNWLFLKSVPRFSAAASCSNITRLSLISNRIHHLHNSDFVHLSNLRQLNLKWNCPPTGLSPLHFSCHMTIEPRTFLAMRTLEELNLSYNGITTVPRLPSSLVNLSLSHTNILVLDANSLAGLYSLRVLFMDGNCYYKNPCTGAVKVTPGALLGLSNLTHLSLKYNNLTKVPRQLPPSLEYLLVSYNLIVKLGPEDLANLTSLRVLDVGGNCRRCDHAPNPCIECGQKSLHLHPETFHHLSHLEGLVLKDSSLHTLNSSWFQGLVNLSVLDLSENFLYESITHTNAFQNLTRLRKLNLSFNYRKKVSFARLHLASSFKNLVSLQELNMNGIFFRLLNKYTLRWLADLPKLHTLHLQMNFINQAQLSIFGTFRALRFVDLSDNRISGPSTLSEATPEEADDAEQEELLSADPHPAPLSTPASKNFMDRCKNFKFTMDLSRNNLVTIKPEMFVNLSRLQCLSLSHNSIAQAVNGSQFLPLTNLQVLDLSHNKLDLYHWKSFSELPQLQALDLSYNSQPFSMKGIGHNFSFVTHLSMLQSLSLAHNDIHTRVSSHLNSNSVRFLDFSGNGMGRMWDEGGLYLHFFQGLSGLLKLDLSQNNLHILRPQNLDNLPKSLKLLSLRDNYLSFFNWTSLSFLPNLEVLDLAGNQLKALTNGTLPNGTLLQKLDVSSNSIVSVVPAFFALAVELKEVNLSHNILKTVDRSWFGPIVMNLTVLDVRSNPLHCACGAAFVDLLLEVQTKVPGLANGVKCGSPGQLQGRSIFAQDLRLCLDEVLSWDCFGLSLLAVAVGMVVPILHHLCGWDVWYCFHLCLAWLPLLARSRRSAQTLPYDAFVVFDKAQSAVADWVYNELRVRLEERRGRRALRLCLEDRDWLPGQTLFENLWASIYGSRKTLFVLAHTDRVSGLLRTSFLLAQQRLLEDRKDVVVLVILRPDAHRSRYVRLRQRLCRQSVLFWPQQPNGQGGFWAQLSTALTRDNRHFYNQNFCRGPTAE
Put plainly: TLR9-mediated TNF-α secretion (ODN2395 stimulation), ELISA. It counts as cell-based, murine. How it is done: (§1) Agonists specific to TLR1/TLR2 (Pam3CSK4), TLR2/TLR6 (FSL-1), TLR3 (Poly I:C), TLR7 (imiquimod), and TLR8 (TL8-506) were purchased from InvivoGen Ltd. (Hong-Kong, China), and a TLR4-specific agonist (LPS from E. coli O111:B4) was purchased from Sigma-Aldrich, Inc. For TLR9-specific stimulation, class C CpG-ODN (ODN2395, 5′-TCGTCGTTTTCGGCGCGCGCCG-3′) having full phosphorothioate backbone modification was synthesized (Bioneer, Inc., Daejeon, Korea). All TLR agonists were dissolved in deionized water and applied to a culture media for TLR activation. The cells were treated with test compounds or a control medium for 1 hour, and then stimulated with a TLR agonist for 4 hours, or 24 hours in the case of poly(I:C), and the cytokine secretion was monitored.
(§2) RAW 264.7 or differentiated THP-1 cell lines were seeded onto a 96-well culture plate at a density of 2×10^4 cells/well. The cells were treated with test compounds for 1 hour followed by the stimulation with TLR agonists for 4 hours. The supernatant was transferred to pre-coated assay plates, and the secretion levels of mouse and human TNF-α were measured by respective ELISA kits (Invitrogen, Carlsbad, CA, USA). All experiments were performed according to the manufacturer's instructions. Absorbance was measured by a microplate reader spectrophotometer (Molecular Devices, Inc., San Jose, CA, USA), and data was interpolated from a standard curve using SoftMax Pro 5.3 software (Molecular Devices, Inc.).
In order to evaluate the antagonistic effect of each compound on TLR7/TLR9 through ELISA (enzyme-linked immunosorbent assay), RAW 264.7 cells were pretreated with the eight compounds followed by the stimulation with a TLR7-specific agonist (imiquimod, 3.61 μM) or with a TLR9-specific agonist (ODN2395, 0.5 μM). […] Since the two ligands had no agonistic effect per se (FIG. 3B), the increased cytokine production may be due to cell activation (or non-specific cellular stress) by co-treatment. Consequently, TIC10 was selected as the most suitable lead for further optimization to improve the inhibitory potency against both TLR7 and TLR9.
Background: ELISA stands for enzyme-linked immunosorbent assay.

The target of the next assay is T2, TLR1/2 (Mus musculus, UniProt Q9EPQ1+Q9QUN7).
T2 construct: endogenous in cells; host or cells: RAW 264.7
The assay is described as follows: TLR1/2-mediated TNF-α secretion (Pam3CSK4), ELISA. It counts as cell-based, murine. Particulars: RAW 264.7, 10 or 20 μM. How it is done: as §1
as §2, with “All experiments were performed according to the manufacturer's instructions.” left out, “Inc.). […]” for “Inc.).”

T2 sequence (Q9EPQ1 26-795): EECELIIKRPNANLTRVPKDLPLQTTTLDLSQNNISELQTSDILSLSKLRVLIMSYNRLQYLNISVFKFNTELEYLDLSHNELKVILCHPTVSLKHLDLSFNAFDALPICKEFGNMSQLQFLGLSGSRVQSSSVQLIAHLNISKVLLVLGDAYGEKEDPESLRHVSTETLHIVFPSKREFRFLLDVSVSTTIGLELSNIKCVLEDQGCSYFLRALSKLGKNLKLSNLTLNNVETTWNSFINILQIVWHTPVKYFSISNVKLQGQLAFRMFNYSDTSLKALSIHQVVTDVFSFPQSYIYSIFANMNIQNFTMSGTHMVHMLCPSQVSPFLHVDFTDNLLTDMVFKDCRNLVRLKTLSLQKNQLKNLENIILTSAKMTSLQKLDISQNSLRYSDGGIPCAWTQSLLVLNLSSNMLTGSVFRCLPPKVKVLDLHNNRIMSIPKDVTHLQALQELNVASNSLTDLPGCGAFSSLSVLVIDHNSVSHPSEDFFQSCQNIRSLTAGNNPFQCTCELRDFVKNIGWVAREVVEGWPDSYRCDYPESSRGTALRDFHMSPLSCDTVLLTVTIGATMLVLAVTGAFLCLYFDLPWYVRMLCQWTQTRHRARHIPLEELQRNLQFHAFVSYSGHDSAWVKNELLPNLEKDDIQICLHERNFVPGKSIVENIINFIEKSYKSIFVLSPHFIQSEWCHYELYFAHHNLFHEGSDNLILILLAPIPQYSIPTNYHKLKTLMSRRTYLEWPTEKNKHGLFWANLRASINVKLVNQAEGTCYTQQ
T2 sequence (Q9QUN7 25-784): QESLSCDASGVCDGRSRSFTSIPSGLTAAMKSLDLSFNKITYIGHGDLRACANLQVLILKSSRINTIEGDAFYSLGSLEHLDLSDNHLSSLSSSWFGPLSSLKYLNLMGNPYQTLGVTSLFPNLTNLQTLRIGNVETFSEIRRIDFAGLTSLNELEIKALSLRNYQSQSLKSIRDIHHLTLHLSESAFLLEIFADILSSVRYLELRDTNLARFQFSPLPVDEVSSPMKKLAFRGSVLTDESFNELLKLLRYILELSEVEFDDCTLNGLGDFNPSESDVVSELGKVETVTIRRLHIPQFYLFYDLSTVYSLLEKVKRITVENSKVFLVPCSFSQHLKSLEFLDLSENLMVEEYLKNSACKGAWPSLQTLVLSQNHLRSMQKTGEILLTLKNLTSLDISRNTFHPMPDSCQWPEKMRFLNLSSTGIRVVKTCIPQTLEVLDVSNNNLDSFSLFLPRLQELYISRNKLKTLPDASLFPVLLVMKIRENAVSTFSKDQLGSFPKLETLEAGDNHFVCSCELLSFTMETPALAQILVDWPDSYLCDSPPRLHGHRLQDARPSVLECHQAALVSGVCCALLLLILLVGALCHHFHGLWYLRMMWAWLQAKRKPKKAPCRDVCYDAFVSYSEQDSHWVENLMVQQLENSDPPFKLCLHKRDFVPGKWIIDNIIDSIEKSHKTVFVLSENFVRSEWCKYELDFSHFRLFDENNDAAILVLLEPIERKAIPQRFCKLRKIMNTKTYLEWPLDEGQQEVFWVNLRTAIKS

Regarding `COc1ccc(CNc2ncc(-c3ccc4c(c3)OCO4)n2C)c(OC)c1` [TIC10-7, 5-(2H-1,3-benzodioxol-5-yl)-N-[(2,4-dimethoxyphenyl)methyl]-1-methyl-1H-imidazol-2-amine], the “TLR9-mediated TNF-α secretion” value at TLR9 (RAW 264.7, 10 or 20 μM, ODN2395 (receptor specificity, FIG. 6)) is given as “moderately reduced”. The “inhibitory efficacy on TLR9-mediated TNF-α secretion” value against TLR9 (RAW 264.7, 10 or 50 μM, ODN2395 (FIG. 4A)) is given as “improved inhibitory efficacy compared to TIC10; also recorded: significant reduction”. At TLR9 (RAW 264.7, ODN2395 (FIG. 4C)), the negative logarithm of the IC50 (pIC50) – broadly, the negative decadic logarithm of the IC50, by convention in mol/L – was 5.17. Further, at TLR1/2, the “effect on TLR1/2-mediated cytokine (TNF-α) production” value was “no effect”.
